Measurements: ChEMBL document CHEMBL4270577, “Synthesis, anticancer activity and molecular modeling studies of 1,2,4-triazole derivatives as EGFR inhibitors” (Eur J Med Chem, 2018)

Each molecule was assayed on SK-MEL-5 (assay: Growth inhibition of human SK-MEL-5 cells at 10 uM incubated for 48 hrs by sulforhodamine B assay relative to control). Conditions: SK-MEL-5, 48 h, read-out: GI.
Format: functional

Row | SMILES | inhibition of growth at 10 µM
1 | COc1ccc(-c2nc3sc(-c4ccccc4)cn3n2)cc1 | 65%

Each molecule was assayed on OVCAR-4 (assay: Growth inhibition of human OVCAR4 cells at 10 uM incubated for 48 hrs by sulforhodamine B assay relative to control). Conditions: OVCAR-4, 48 h, read-out: GI.
Format: functional

Row | SMILES | inhibition of growth at 10 µM
2 | COc1ccc(-c2nc3sc(-c4ccccc4)cn3n2)cc1 | 37%

These molecules were tested on T47D (assay: Growth inhibition of human T47D cells at 10 uM incubated for 48 hrs by sulforhodamine B assay relative to control). Conditions: read-out: GI.
Format: functional

Row | SMILES | inhibition of growth at 10 µM
3 | COc1ccc(-c2nc3sc(-c4ccccc4)cn3n2)cc1 | 65%

Each molecule was assayed on A498 (assay: Growth inhibition of human A498 cells at 10 uM incubated for 48 hrs by sulforhodamine B assay relative to control). Conditions: A498, 48 h, read-out: GI.
Format: functional

Row | SMILES | inhibition of growth at 10 µM
4 | COc1ccc(-c2nc3sc(-c4ccccc4)cn3n2)cc1 | 56%

These molecules were tested on U-251 (assay: Growth inhibition of human U251 cells at 10 uM incubated for 48 hrs by sulforhodamine B assay relative to control). Conditions: U-251, 48 h, read-out: GI.
Format: functional

Row | SMILES | inhibition of growth at 10 µM
5 | COc1ccc(-c2nc3sc(-c4ccccc4)cn3n2)cc1 | 21%

Each molecule was assayed on Malme-3M (assay: Growth inhibition of human MALME-3M cells at 10 uM incubated for 48 hrs by sulforhodamine B assay relative to control). Conditions: read-out: GI.
Format: functional

Row | SMILES | inhibition of growth at 10 µM
6 | COc1ccc(-c2nc3sc(-c4ccccc4)cn3n2)cc1 | 32%

Each molecule was assayed on SNB-19 (assay: Growth inhibition of human SNB19 cells at 10 uM incubated for 48 hrs by sulforhodamine B assay relative to control). Conditions: SNB-19, 48 h, read-out: GI.
Format: functional

Row | SMILES | inhibition of growth at 10 µM
7 | COc1ccc(-c2nc3sc(-c4ccccc4)cn3n2)cc1 | 34%

Each molecule was assayed on SN12C (assay: Growth inhibition of human SN12C cells at 10 uM incubated for 48 hrs by sulforhodamine B assay relative to control). Conditions: read-out: GI.
Format: functional

Row | SMILES | inhibition of growth at 10 µM
8 | COc1ccc(-c2nc3sc(-c4ccccc4)cn3n2)cc1 | 37%

The molecules below were run on SK-MEL-2 (assay: Growth inhibition of human SK-MEL-2 cells at 10 uM incubated for 48 hrs by sulforhodamine B assay relative to control). Conditions: SK-MEL-2, 48 h, read-out: GI.
Format: functional

Row | SMILES | inhibition of growth at 10 µM
9 | COc1ccc(-c2nc3sc(-c4ccccc4)cn3n2)cc1 | 40%

Each molecule was assayed on K562 (assay: Growth inhibition of human K562 cells at 10 uM incubated for 48 hrs by sulforhodamine B assay relative to control). Conditions: K562, 48 h, read-out: GI.
Format: functional

Row | SMILES | inhibition of growth at 10 µM
10 | COc1ccc(-c2nc3sc(-c4ccccc4)cn3n2)cc1 | 76%

These molecules were tested on MDA-MB-231 (assay: Growth inhibition of human MDA-MB-231/ATCC cells at 10 uM incubated for 48 hrs by sulforhodamine B assay relative to control). Conditions: MDA-MB-231, 48 h, read-out: GI.
Format: functional

Row | SMILES | inhibition of growth at 10 µM
11 | COc1ccc(-c2nc3sc(-c4ccccc4)cn3n2)cc1 | 53%

Each molecule was assayed on MOLT-4 (assay: Growth inhibition of human MOLT4 cells at 10 uM incubated for 48 hrs by sulforhodamine B assay relative to control). Conditions: MOLT-4, 48 h, read-out: GI.
Format: functional

Row | SMILES | inhibition of growth at 10 µM
12 | COc1ccc(-c2nc3sc(-c4ccccc4)cn3n2)cc1 | 49%

The molecules below were run on CCRF-CEM (assay: Growth inhibition of human CCRF-CEM cells at 10 uM incubated for 48 hrs by sulforhodamine B assay relative to control). Conditions: read-out: GI.
Format: functional

Row | SMILES | inhibition of growth at 10 µM
13 | COc1ccc(-c2nc3sc(-c4ccccc4)cn3n2)cc1 | 35%

Each molecule was assayed on RXF 393 (assay: Growth inhibition of human RXF393 cells at 10 uM incubated for 48 hrs by sulforhodamine B assay relative to control). Conditions: RXF 393, 48 h, read-out: GI.
Format: functional

Row | SMILES | inhibition of growth at 10 µM
14 | COc1ccc(-c2nc3sc(-c4ccccc4)cn3n2)cc1 | 24%

Each molecule was assayed on MCF7 (assay: Growth inhibition of human MCF7 cells at 10 uM incubated for 48 hrs by sulforhodamine B assay relative to control). Conditions: MCF7, 48 h, read-out: GI.
Format: functional

Row | SMILES | inhibition of growth at 10 µM
15 | COc1ccc(-c2nc3sc(-c4ccccc4)cn3n2)cc1 | 74%

These molecules were tested on RPMI-8226 (assay: Growth inhibition of human RPMI8226 cells at 10 uM incubated for 48 hrs by sulforhodamine B assay relative to control). Conditions: RPMI-8226, 48 h, read-out: GI.
Format: functional

Row | SMILES | inhibition of growth at 10 µM
16 | COc1ccc(-c2nc3sc(-c4ccccc4)cn3n2)cc1 | 21%

The molecules below were run on HL-60(TB) (assay: Growth inhibition of human HL-60(TB) cells at 10 uM incubated for 48 hrs by sulforhodamine B assay relative to control). Conditions: HL-60, 48 h, read-out: GI.
Format: functional

Row | SMILES | inhibition of growth at 10 µM
17 | COc1ccc(-c2nc3sc(-c4ccccc4)cn3n2)cc1 | 32%

The molecules below were run on NCI-H522 (assay: Growth inhibition of human NCI-H522 cells at 10 uM incubated for 48 hrs by sulforhodamine B assay relative to control). Conditions: NCI-H522, 48 h, read-out: GI.
Format: functional

Row | SMILES | inhibition of growth at 10 µM
18 | COc1ccc(-c2nc3sc(-c4ccccc4)cn3n2)cc1 | 70%

Each molecule was assayed on DU-145 (assay: Growth inhibition of human DU145 cells at 10 uM incubated for 48 hrs by sulforhodamine B assay relative to control). Conditions: DU-145, 48 h, read-out: GI.
Format: functional

Row | SMILES | inhibition of growth at 10 µM
19 | COc1ccc(-c2nc3sc(-c4ccccc4)cn3n2)cc1 | 16%

Each molecule was assayed on PANC-1 (assay: Antiproliferative activity against human PANC1 cells after 48 hrs by propidium iodide staining-based fluorometric analysis). Conditions: PANC-1, 48 h.
Format: functional, cell-based

Row | SMILES | IC50
20 | COc1ccc(-c2nc3sc(-c4ccccc4)cn3n2)cc1 | 4.5 µM

The molecules below were run on NCI-H460 (assay: Antiproliferative activity against human H460 cells after 48 hrs by propidium iodide staining-based fluorometric analysis). Conditions: NCI-H460, 48 h.
Format: functional, cell-based

Row | SMILES | IC50
21 | COc1ccc(-c2nc3sc(-c4ccccc4)cn3n2)cc1 | 6.9 µM

These molecules were tested on NCI-H226 (assay: Growth inhibition of human NCI-H226 cells at 10 uM incubated for 48 hrs by sulforhodamine B assay relative to control). Conditions: NCI-H226, 48 h, read-out: GI.
Format: functional

Row | SMILES | inhibition of growth at 10 µM
22 | COc1ccc(-c2nc3sc(-c4ccccc4)cn3n2)cc1 | 23%

What follows are molecules tested on SF-539 (assay: Growth inhibition of human SF539 cells at 10 uM incubated for 48 hrs by sulforhodamine B assay relative to control). Conditions: SF-539, 48 h, read-out: GI.
Format: functional

Row | SMILES | inhibition of growth at 10 µM
23 | COc1ccc(-c2nc3sc(-c4ccccc4)cn3n2)cc1 | 24%

These molecules were tested on HT-29 (assay: Growth inhibition of human HT-29 cells at 10 uM incubated for 48 hrs by sulforhodamine B assay relative to control). Conditions: HT-29, 48 h, read-out: GI.
Format: functional

Row | SMILES | inhibition of growth at 10 µM
24 | COc1ccc(-c2nc3sc(-c4ccccc4)cn3n2)cc1 | 70%

Each molecule was assayed on KM12 (assay: Growth inhibition of human KM12 cells at 10 uM incubated for 48 hrs by sulforhodamine B assay relative to control). Conditions: KM12, 48 h, read-out: GI.
Format: functional

Row | SMILES | inhibition of growth at 10 µM
25 | COc1ccc(-c2nc3sc(-c4ccccc4)cn3n2)cc1 | 70%

These molecules were tested on EKVX (assay: Growth inhibition of human EKVX cells at 10 uM incubated for 48 hrs by sulforhodamine B assay relative to control). Conditions: read-out: GI.
Format: functional

Row | SMILES | inhibition of growth at 10 µM
26 | COc1ccc(-c2nc3sc(-c4ccccc4)cn3n2)cc1 | 37%

The molecules below were run on NCI-H322M (assay: Growth inhibition of human NCI-H322M cells at 10 uM incubated for 48 hrs by sulforhodamine B assay relative to control). Conditions: read-out: GI.
Format: functional

Row | SMILES | inhibition of growth at 10 µM
27 | COc1ccc(-c2nc3sc(-c4ccccc4)cn3n2)cc1 | 14%

What follows are molecules tested on SW-620 (assay: Growth inhibition of human SW620 cells at 10 uM incubated for 48 hrs by sulforhodamine B assay relative to control). Conditions: SW-620, 48 h, read-out: GI.
Format: functional

Row | SMILES | inhibition of growth at 10 µM
28 | COc1ccc(-c2nc3sc(-c4ccccc4)cn3n2)cc1 | 64%

These molecules were tested on COLO 205 (assay: Growth inhibition of human COLO205 cells at 10 uM incubated for 48 hrs by sulforhodamine B assay relative to control). Conditions: COLO 205, 48 h, read-out: GI.
Format: functional

Row | SMILES | inhibition of growth at 10 µM
29 | COc1ccc(-c2nc3sc(-c4ccccc4)cn3n2)cc1 | 63%

Each molecule was assayed on SF-295 (assay: Growth inhibition of human SF295 cells at 10 uM incubated for 48 hrs by sulforhodamine B assay relative to control). Conditions: SF-295, 48 h, read-out: GI.
Format: functional

Row | SMILES | inhibition of growth at 10 µM
30 | COc1ccc(-c2nc3sc(-c4ccccc4)cn3n2)cc1 | 38%

What follows are molecules tested on MDA-MB-435 (assay: Growth inhibition of human MDA-MB-435 cells at 10 uM incubated for 48 hrs by sulforhodamine B assay relative to control). Conditions: MDA-MB-435, 48 h, read-out: GI.
Format: functional

Row | SMILES | inhibition of growth at 10 µM
31 | COc1ccc(-c2nc3sc(-c4ccccc4)cn3n2)cc1 | -8.6%

What follows are molecules tested on IGROV-1 (assay: Growth inhibition of human IGROV1 cells at 10 uM incubated for 48 hrs by sulforhodamine B assay relative to control). Conditions: IGROV-1, 48 h, read-out: GI.
Format: functional

Row | SMILES | inhibition of growth at 10 µM
32 | COc1ccc(-c2nc3sc(-c4ccccc4)cn3n2)cc1 | 52%

These molecules were tested on ACHN (assay: Growth inhibition of human ACHN cells at 10 uM incubated for 48 hrs by sulforhodamine B assay relative to control). Conditions: read-out: GI.
Format: functional

Row | SMILES | inhibition of growth at 10 µM
33 | COc1ccc(-c2nc3sc(-c4ccccc4)cn3n2)cc1 | 32%

What follows are molecules tested on NCI-H23 (assay: Growth inhibition of human NCI-H23 cells at 10 uM incubated for 48 hrs by sulforhodamine B assay relative to control). Conditions: NCI-H23, 48 h, read-out: GI.
Format: functional

Row | SMILES | inhibition of growth at 10 µM
34 | COc1ccc(-c2nc3sc(-c4ccccc4)cn3n2)cc1 | 28%

These molecules were tested against Epidermal growth factor receptor (Homo sapiens, UniProt P00533) (assay: Inhibition of His6-tagged recombinant EGFR cytoplasmic domain (645 to 1186 residues) (unknown origin) expressed in baculovirus infected Sf9 insect cells preincubated for 10 mins followed by ATP-MgCl2 addition and measured after 1 hr by DELFIA/time-resolved fluorometric analysis). Conditions: not given.
Epidermal growth factor receptor, sequence (P00533 whole entry, the tested form may be a part): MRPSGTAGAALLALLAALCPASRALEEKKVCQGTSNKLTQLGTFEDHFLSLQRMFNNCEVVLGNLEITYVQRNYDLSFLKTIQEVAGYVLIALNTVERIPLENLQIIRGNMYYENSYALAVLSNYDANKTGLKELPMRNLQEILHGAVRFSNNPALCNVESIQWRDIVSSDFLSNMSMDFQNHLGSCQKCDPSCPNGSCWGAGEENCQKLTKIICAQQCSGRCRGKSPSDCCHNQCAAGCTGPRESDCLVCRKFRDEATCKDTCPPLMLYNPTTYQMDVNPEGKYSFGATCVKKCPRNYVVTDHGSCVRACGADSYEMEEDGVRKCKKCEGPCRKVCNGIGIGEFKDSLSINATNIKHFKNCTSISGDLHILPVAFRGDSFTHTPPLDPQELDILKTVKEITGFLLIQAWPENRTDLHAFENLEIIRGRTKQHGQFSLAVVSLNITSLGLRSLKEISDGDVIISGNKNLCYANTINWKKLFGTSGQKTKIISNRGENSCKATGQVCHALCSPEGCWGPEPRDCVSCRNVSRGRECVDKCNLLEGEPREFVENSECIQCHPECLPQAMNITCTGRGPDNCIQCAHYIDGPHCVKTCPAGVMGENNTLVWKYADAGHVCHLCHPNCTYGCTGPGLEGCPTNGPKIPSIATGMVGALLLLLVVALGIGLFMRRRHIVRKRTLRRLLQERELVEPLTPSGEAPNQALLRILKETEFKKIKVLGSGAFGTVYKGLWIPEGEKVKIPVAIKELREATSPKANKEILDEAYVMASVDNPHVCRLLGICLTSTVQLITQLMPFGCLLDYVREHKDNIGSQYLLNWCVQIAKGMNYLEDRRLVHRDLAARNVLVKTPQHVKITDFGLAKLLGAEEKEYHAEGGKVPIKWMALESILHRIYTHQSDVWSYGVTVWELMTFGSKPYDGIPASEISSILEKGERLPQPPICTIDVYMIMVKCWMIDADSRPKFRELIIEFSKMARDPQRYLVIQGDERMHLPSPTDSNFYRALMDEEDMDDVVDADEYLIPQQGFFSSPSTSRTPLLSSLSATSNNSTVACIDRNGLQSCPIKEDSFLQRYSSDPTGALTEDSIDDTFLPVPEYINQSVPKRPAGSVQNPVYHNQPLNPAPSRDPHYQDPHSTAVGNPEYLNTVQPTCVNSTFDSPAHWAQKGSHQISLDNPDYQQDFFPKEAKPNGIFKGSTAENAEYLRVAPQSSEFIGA

Row | SMILES | IC50
35 | COc1ccc(-c2nc3sc(-c4ccccc4)cn3n2)cc1 | 5.6 µM

Each molecule was assayed on HCT-116 (assay: Growth inhibition of human HCT116 cells at 10 uM incubated for 48 hrs by sulforhodamine B assay relative to control). Conditions: HCT-116, 48 h, read-out: GI.
Format: functional

Row | SMILES | inhibition of growth at 10 µM
36 | COc1ccc(-c2nc3sc(-c4ccccc4)cn3n2)cc1 | 60%
